Test results: article PMC6792352, “Limited Chemical Structural Diversity Found to Modulate Thyroid Hormone Receptor in the Tox21 Chemical Library” (Environmental Health Perspectives, 2019)
Structures can show the parent of a compound that is named as a salt.

Assay: in vitro
Settings: rat, gh3-tre-luc cells

SMILES | CC50 at 24 h (AC50 (uM) modified / 1000) | other results
N[C@@H](Cc1c[nH]c2ccc(O)cc12)C(=O)O [L-5-Hydroxytryptophan] | > 90 µM | –
c1ccc(Cc2ccccc2)cc1 [Diphenylmethane] | > 90 µM | –
CCN(Cc1cccnc1)C(=O)c1cccc(Cl)c1[C@]1(C)C(=O)N(Cc2ccc(OC)cc2OC)c2ccc(Cl)cc21 [SSR126768] | 9.39 µM | –
O=C(N[C@@H]1N=C(c2ccccc2F)c2cccc3c2N(CC3)C1=O)c1cc2ccccc2[nH]1 [N-[(3R)-1-(2-Fluorophenyl)-4-oxo-3,4,6,7-tetrahydro[1,4]diazepino[6,7,1-hi]indol-3-yl]-1H-indole-2-carboxamide] | > 50 µM | –
COc1cc(C=O)ccc1OC(=O)C(C)C [Vanillin isobutyrate] | > 90 µM | –
CC1(C)S[C@@H]2[C@H](NC(=O)C(C(=O)O)c3ccsc3)C(=O)N2[C@H]1C(=O)O (some centres unmarked) [Ticarcillin disodium] | > 50 µM | –
CC(=O)OC(C)C[N+](C)(C)C (centres unmarked) [Methacholine chloride] | > 20 µM | –
O=C(Nc1ccccc1)c1cc([N+](=O)[O-])ccc1Cl [2-Chloro-5-nitro-N-phenylbenzamide] | 49.9 µM | –
C=CC[N+]1(C)CC[C@]23c4c5ccc(O)c4O[C@H]2C(=O)CC[C@@]3(O)[C@H]1C5 (some centres unmarked) [Naloxone methyliodide] | – | CC50 at 24 h (AC50 (uM) modified / 1000, Tox21_110001=Tox21_112025, viability, 1 nM T3 present, 24 h): > 50 µM
CO[C@]12C[C@@H](COC(=O)c3cncc(Br)c3)CN(C)[C@@H]1Cc1cn(C)c3cccc2c13 [Nicergoline] | 16.4 µM | –
CCCCCCC(C)(C)S [tert-Nonanethiol] | > 90 µM | –
CC1(C)CC(N=C=O)CC(C)(CN=C=O)C1 (centres unmarked) [Isophorone diisocyanate] | > 90 µM | –
CCC(=O)OCc1ccccc1 [Benzyl propanoate] | > 90 µM | –
CC1=CCC(C(C)C)=CC1 [gamma-Terpinene] | > 90 µM | –
c1cnccn1 [Pyrazine] | > 90 µM | –
CC1(C)C[C@@H]1C(=O)N/C(=C\CCCCSC[C@H](N)C(=O)O)C(=O)O [Cilastatin sodium] | > 50 µM | –
C=CN1CCCCCC1=O [1-Ethenylazepan-2-one] | > 90 µM | –
CC(C)(C)c1ccc(N)cc1 [4-tert-Butylaniline] | > 90 µM | –
c1ccc2cc3c4ccccc4c4ccccc4c3cc2c1 [Dibenz[a,c]anthracene] | > 90 µM | –
CN(C(=O)CO)c1c(I)c(C(=O)NCC(O)CO)c(I)c(C(=O)NCC(O)CO)c1I (centres unmarked) [Iomeprol] | > 50 µM | –
CCCCCCCCCCC [Undecane] | > 90 µM | –
Oc1c(Cl)cc(Cl)c2cccnc12 [Chloroxine] | 5.91 µM | –
COc1cc(C(=O)N2CCCCCCC2)cc(OC)c1OC [Trocimine] | > 50 µM | –
Cc1cccc(Nc2ccccc2)c1 [3-Methyl-N-phenylaniline] | > 90 µM | –

SMILES | CC50 at 24 h (AC50 (uM) modified / 1000) | other results
CCCCC(CC)COC(=O)Cl (centres unmarked) [2-Ethylhexyl chloroformate] | – | CC50 at 24 h (AC50 (uM) modified / 1000, Tox21_110001=Tox21_201491, viability, 1 nM T3 present, 24 h): > 90 µM
O=C(CS)Nc1ccccc1 [Thioglycolic acid anilide] | 33.8 µM | –
CCN1CCN(C(=O)N[C@@H](C(=O)N[C@@H]2C(=O)N3[C@@H]2SC(C)(C)[C@@H]3C(=O)O)c2ccccc2)C(=O)C1=O [Piperacillin sodium salt] | > 50 µM | –
CCCc1nc2c(C)cc(-c3nc4ccccc4n3C)cc2n1Cc1ccc(-c2ccccc2C(=O)O)cc1 [Telmisartan] | > 50 µM | –
COc1cc(C[C@@H]2NCCc3cc(O)c(O)cc32)cc(OC)c1OC [Trimethoquinol] | > 50 µM | –
C[C@@H]1[C@H](O)[C@@H](C)/C=C/C=C/C=C/C=C/C=C/C=C/C=C/[C@H](O[C@@H]2O[C@H](C)[C@@H](O)[C@H](N)[C@@H]2O)C[C@@H]2O[C@](O)(C[C@@H](O)C[C@@H](O)[C@H](O)CC[C@@H](O)C[C@@H](O)CC(=O)O[C@H]1C)C[C@H](O)[C@H]2C(=O)O [Amphotericin B] | 32.9 µM | –
CC(=O)OCC(=O)[C@@]1(O)CC[C@H]2[C@@H]3CCC4=CC(=O)CC[C@]4(C)[C@H]3C(=O)C[C@@]21C [Cortisone acetate] | > 50 µM | –
O=C(O)[C@H](O)c1ccccc1 [D-(-)-Mandelic acid] | > 50 µM | –
O=C(CCBr)N1CCN(C(=O)CCBr)CC1 [Pipobroman] | > 50 µM | –
N=C(N)n1cccn1 [Praxadine hydrochloride] | > 50 µM | –
CN1CCN(c2c(F)cc3c(=O)c(C(=O)O)cn4c3c2OCN4C)CC1 [Marbofloxacin] | > 50 µM | –
Nc1ccc(N)c(Cl)c1 [2-Chloro-1,4-diaminobenzene sulfate] | > 90 µM | –
O=C1CCCN1 [2-Pyrrolidinone] | > 90 µM | –
N#C[C@@H]1C[C@@H]2C[C@@H]2N1C(=O)[C@@H](N)C12CC3CC(CC(O)(C3)C1)C2 [Saxagliptin] | > 50 µM | –
CCO[Si](CC)(OCC)OCC [Ethyltriethoxysilane] | > 90 µM | –
CN(C)N=O [N-Nitrosodimethylamine] | – | CC50 at 24 h (AC50 (uM) modified / 1000, Tox21_110001=Tox21_201663, viability, 1 nM T3 present, 24 h): > 90 µM
C=CC(=O)OCC1CC2CC1C1CCC(COC(=O)C=C)C21 (centres unmarked) [Octahydro-1H-4,7-methanoindene-1,5-diyldimethanediyl bisprop-2-enoate] | 75.1 µM | –
CC(C)c1cc2c(cc1S(=O)(=O)O)[C@@]1(C)CCC[C@@](C)(C(=O)O)[C@@H]1CC2 [Ecabet] | > 50 µM | –
O=[N+]([O-])O[C@@H]1CO[C@H]2[C@@H]1OC[C@@H]2O [Isosorbide 5-mononitrate] | > 50 µM | –
ClC1=C(Cl)[C@]2(Cl)C3C(Cl)C(Cl)CC3[C@@]1(Cl)C2(Cl)Cl (some centres unmarked) [Chlordane] | – | CC50 at 24 h (AC50 (uM) modified / 1000, Tox21_110001=Tox21_300586, viability, 1 nM T3 present, 24 h): 25.5 µM
NCCN1CCNCC1 [1-(2-Aminoethyl)piperazine] | > 90 µM | –
O=C(O)CCNC(=O)c1ccc(/N=N/c2ccc(O)c(C(=O)O)c2)cc1 [Balsalazide] | > 50 µM | –
CCC(=O)/C=C/C1C(C)=CCCC1(C)C (centres unmarked) [Methylionone] | > 90 µM | –
CCC(C)(C)OC(=O)N[C@@H](Cc1c[nH]c2ccccc12)C(=O)N[C@@H](CCSC)C(=O)N[C@@H](CC(=O)O)C(=O)N[C@@H](Cc1ccccc1)C(N)=O [Amogastrin] | > 50 µM | –

SMILES | CC50 at 24 h (AC50 (uM) modified / 1000) | other results
COC(=O)[C@H]1[C@H]2C[C@@H]3c4[nH]c5cc(OC)ccc5c4CCN3C[C@H]2C[C@@H](OC(=O)COc2ccc(OC)cc2)[C@@H]1OC [Mefeserpine] | > 50 µM | –
CN1C(=O)NC(=O)C(C)(C2=CCCCC2)C1=O (centres unmarked) [Hexobarbital] | > 50 µM | –
CCCCCCO [1-Hexanol] | > 90 µM | –
O=C(Nc1cccc2c(=O)cc(-c3nnn[nH]3)oc12)c1ccc(OCCCCc2ccccc2)cc1 [Pranlukast] | > 50 µM | –
C=CCSSCCC [Allyl propyl disulfide] | > 90 µM | –
CCCc1ccc(N)cc1 [4-Propylaniline] | > 90 µM | –
CCBr [Bromoethane] | – | CC50 at 24 h (AC50 (uM) modified / 1000, Tox21_110001=Tox21_200355, viability, 1 nM T3 present, 24 h): > 90 µM
OCC1CCCO1 (centres unmarked) [Tetrahydrofurfuryl alcohol] | > 90 µM | –
COCCOC(=O)C1=C(C)NC(C)=C(C(=O)OC(C)C)C1c1cccc([N+](=O)[O-])c1 (centres unmarked) [Nimodipine] | > 50 µM | –
CCCCC1CCC(=O)O1 (centres unmarked) [4-Octanolide] | > 90 µM | –
CC(=O)OC1CCCCC1C(C)(C)C (centres unmarked) [2-tert-Butylcyclohexyl acetate] | > 90 µM | –
Cc1cccc(C)c1 [m-Xylene] | > 90 µM | –
C[C@@H]1CCC[C@H](C)N1 [cis-Nanophine hydrochloride] | > 20 µM | –
N=C(N)NN=C1C=CC(=NNC(N)=S)C=C1 [Ambazone] | 23 µM | –
CC[C@H](C)[C@H]1O[C@]2(C=C[C@@H]1C)C[C@@H]1C[C@@H](C/C=C(\C)[C@@H](O[C@H]3C[C@H](OC)[C@@H](O[C@H]4C[C@H](OC)[C@@H](NC)[C@H](C)O4)[C@H](C)O3)[C@@H](C)/C=C/C=C3\CO[C@@H]4[C@H](O)C(C)=C[C@@H](C(=O)O1)[C@]34O)O2 [Emamectin benzoate] | – | CC50 at 24 h (AC50 (uM) modified / 1000, Tox21_110001=Tox21_300787, viability, 1 nM T3 present, 24 h): 1.42 µM
CC/C=C/CCO [(E)-3-Hexen-1-ol] | > 90 µM | –
CCCCCC[n+]1ccccc1 [1-Hexylpyridinium bromide] | > 90 µM | –
O=CO [Formic acid, potassium salt] | > 5 µM | –
CCOC(=O)COc1ccc2c(C)c(CCN(CC)CC)c(=O)oc2c1Cl [Cloricromen hydrochloride] | 31.2 µM | –
CC(C)CC(C)(N)C#N (centres unmarked) [2-Amino-2,4-dimethylpentanenitrile] | > 90 µM | –
C[C@H]1C(=O)O[C@@H]2CCN3CC=C(COC(=O)[C@](C)(O)[C@]1(C)O)[C@H]23 [Monocrotaline] | > 90 µM | –
O=C(O)c1ccccc1Nc1cc(Cl)ccc1C(=O)O [Lobenzarit sodium] | > 50 µM | –
N#CCCNCCC#N [3,3'-Iminobispropanenitrile] | > 100 µM | –
